Test results published in patent US11299760B2 (Amgen Inc., priority 2013, dated 2022).

Experiments:
[1] = tested on: recombinant CHO cell line producing an antibody (MAb A); test: six day batch assay, glycan analysis (HILIC); type: cell-based, Chinese hamster; design: Total HM: unit not given here; conditions: for Man5 / Man6 / Man7 / Man8a / Man8b / Total HM: day 6
Experimental: (§1) Cells were centrifuged at 1500 rpm for five minutes and seeded at 2×10^6 cells per ml into batch production medium in a 24 deep-well plate at a final volume of 3 ml.
(§2) Cell density and viability were measured by Guava easyCyte flow cytometer (Milipore, Billerica, Mass.) with the ViaCount application. Cultures were spun down, supernatants were filtered on 0.4 micron filters, and were analyzed for titer and glycan distribution.
For glycan analysis, Peptide-N-Glycosidase F (PNGAse F)—released N-linked glycans from protein A purified antibodies were labeled with 2-aminobenzoic acid (2-AA) and separated by HILIC (hydrophilic interaction liquid chromatography) in-line with a fluorescence detector. The separation was performed using a Waters Acquity UPLC (Waters, Milford, Mass.). In-line mass spectrometry (MS), using an ion trap mass spectrometer (LTQ; Thermo Scientific, Waltham, Mass.) in positive mode, was incorporated to accommodate mass determination of species. Glycans were injected and bound to the column in high organic conditions and were then eluted with an increasing gradient of an aqueous ammonium formate buffer. Fast separation times were achieved using a […] small particle column format (Acquity UPLC BEH Glycan Column, 2.1×100 mm; Waters, Milford, Mass.).

[2] = tested on: recombinant CHO cell line producing an antibody (MAb A); test: six day batch assay, cell culture parameters (VCD, viability, titer); type: cell-based, Chinese hamster; conditions: for Titer / VCD / Viability: day 6
Experimental: as §1, §2
Antibody titer was measured by loading filtered cell culture supernatants over a POROS A/20 Protein A column (Applied Biosystems, Carlsbad, Calif.) equilibrated with 20 mM Tris, […], pH 7.0 buffer. Antibody elution was performed with 220 mM acetic acid, […], pH 2.6 buffer at a mobile phase flow rate of 4.0 ml/min. Eluted antibody was detected at a wavelength of 280 nm. Antibody concentration was determined based on a standard curve with a reference antibody standard. For high molecular weight measurement, antibodies were purified from spent medium supernatants on ATOLL columns (ATOLL-Bio Inc USA, Lawrance, Kans.) and were then analyzed using size exclusion chromatography.
Cell culture performance was assessed via viable cell density (VCD), viability and titer measurements of harvested samples. Each bar represents an average result for duplicate cell culture samples. Each value is an average of duplicates.

[3] = 25 nM bolus on day 0 or 200 nM or 100 nM bolus on day 3

CC[C@@]1([C@@H]2O[C@@H]([C@H]3O[C@@](O)(CO)[C@H](C)C[C@@H]3C)C[C@@H]2C)CC[C@H]([C@]2(C)CC[C@]3(C[C@H](O)[C@@H](C)[C@@H]([C@@H](C)[C@@H](OC)[C@H](C)C(=O)O)O3)O2)O1 [monensin]
Man5 ([1]; 0.1 nM monensin added day 1): 0.775% | Man6 ([1]; 0.1 nM monensin added day 1): 0.09% | Man7 ([1]; 0.1 nM monensin added day 1): 0% | Man8a ([1]; 0.1 nM monensin added day 1): 0.31% | Man8b ([1]; 0.1 nM monensin added day 1): 0% | Total HM ([1]; 0.1 nM monensin added day 1): 0.8 | Man5 ([1]; 0.5 nM monensin added day 1): 0.785% | Man6 ([1]; 0.5 nM monensin added day 1): 0.07% | Man7 ([1]; 0.5 nM monensin added day 1): 0% | Man8a ([1]; 0.5 nM monensin added day 1): 0.3% | Man8b ([1]; 0.5 nM monensin added day 1): 0% | Total HM ([1]; 0.5 nM monensin added day 1): 0.85 | Man5 ([1]; 1 nM monensin added day 1): 0.89% | Man6 ([1]; 1 nM monensin added day 1): 0.13% | Man7 ([1]; 1 nM monensin added day 1): 0.04% | Man8a ([1]; 1 nM monensin added day 1): 0.29% | Man8b ([1]; 1 nM monensin added day 1): 0% | Total HM ([1]; 1 nM monensin added day 1): 1.05 | Man5 ([1]; 5 nM monensin added day 1): 1.12% | Man6 ([1]; 5 nM monensin added day 1): 0.18% | Man7 ([1]; 5 nM monensin added day 1): 0.27% | Man8a ([1]; 5 nM monensin added day 1): 0.37% | Man8b ([1]; 5 nM monensin added day 1): 0% | Total HM ([1]; 5 nM monensin added day 1): 1.35 | Man5 ([1]; 10 nM monensin added day 1): 1.485% | Man6 ([1]; 10 nM monensin added day 1): 0.16% | Man7 ([1]; 10 nM monensin added day 1): 0% | Man8a ([1]; 10 nM monensin added day 1): 0.315% | Man8b ([1]; 10 nM monensin added day 1): 0% | Total HM ([1]; 10 nM monensin added day 1): 1.6 | increase of total high mannose glycans on the recombinant antibody [1, 3]: 6 to 30 fold | Man5 ([1]; 25 nM monensin added day 1): 6.43% | Man6 ([1]; 25 nM monensin added day 1): 0.59% | Man7 ([1]; 25 nM monensin added day 1): 0.59% | Man8a ([1]; 25 nM monensin added day 1): 0.39% | Man8b ([1]; 25 nM monensin added day 1): 0.115% | Total HM ([1]; 25 nM monensin added day 1): 7.65 | effect on high mannose and on cell growth, viability and titer ([1]; 50 nM incubated for six days and 500 nM incubated for three days): large increases in high mannose at the expense of cell growth, viability and titer | Man5 ([1]; 50 nM monensin added day 1): 15.725% | Man6 ([1]; 50 nM monensin added day 1): 4.64% | Man7 ([1]; 50 nM monensin added day 1): 4.73% | Man8a ([1]; 50 nM monensin added day 1): 0.8% | Man8b ([1]; 50 nM monensin added day 1): 2.02% | Total HM ([1]; 50 nM monensin added day 1): 25.1 | Man5 ([1]; 100 nM monensin added day 3): 19.365% | Man6 ([1]; 100 nM monensin added day 3): 7.475% | Man7 ([1]; 100 nM monensin added day 3): 6.795% | Man8a ([1]; 100 nM monensin added day 3): 0.8% | Man8b ([1]; 100 nM monensin added day 3): 2.635% | Total HM ([1]; 100 nM monensin added day 3): 33.65 | Man5 ([1]; 200 nM monensin added day 3): 18.585% | Man6 ([1]; 200 nM monensin added day 3): 4.975% | Man7 ([1]; 200 nM monensin added day 3): 3.795% | Man8a ([1]; 200 nM monensin added day 3): 0.61% | Man8b ([1]; 200 nM monensin added day 3): 1.17% | Total HM ([1]; 200 nM monensin added day 3): 27.35 | Man5 ([1]; 500 nM monensin added day 3): 11.735% | Man6 ([1]; 500 nM monensin added day 3): 1.545% | Man7 ([1]; 500 nM monensin added day 3): 1.045% | Man8a ([1]; 500 nM monensin added day 3): 0.355% | Man8b ([1]; 500 nM monensin added day 3): 0.2% | Total HM ([1]; 500 nM monensin added day 3): 14.3 | impact on high mannose or cell culture parameters ([1]; monensin concentrations between 0.1 to 10 nM): no impacts on high mannose or cell culture parameters | Titer ([2]; 0.1 nM monensin added day 1): 3.835 g/L | VCD ([2]; 0.1 nM monensin added day 1): 10 10^6c/ml | Viability ([2]; 0.1 nM monensin added day 1): 81% | Titer ([2]; 0.5 nM monensin added day 1): 4.415 g/L | VCD ([2]; 0.5 nM monensin added day 1): 11 10^6c/ml | Viability ([2]; 0.5 nM monensin added day 1): 81% | Titer ([2]; 1 nM monensin added day 1): 4.265 g/L | VCD ([2]; 1 nM monensin added day 1): 11 10^6c/ml | Viability ([2]; 1 nM monensin added day 1): 82% | Titer ([2]; 5 nM monensin added day 1): 3.45 g/L | VCD ([2]; 5 nM monensin added day 1): 11 10^6c/ml | Viability ([2]; 5 nM monensin added day 1): 82% | Titer ([2]; 10 nM monensin added day 1): 3.635 g/L | VCD ([2]; 10 nM monensin added day 1): 11 10^6c/ml | Viability ([2]; 10 nM monensin added day 1): 81% | impact on cell culture parameters [2, 3]: no negative impact on cell culture parameters | Titer ([2]; 25 nM monensin added day 1): 5.22 g/L | VCD ([2]; 25 nM monensin added day 1): 11 10^6c/ml | Viability ([2]; 25 nM monensin added day 1): 85% | Titer ([2]; 50 nM monensin added day 1): 2.025 g/L | VCD ([2]; 50 nM monensin added day 1): 5 10^6c/ml | Viability ([2]; 50 nM monensin added day 1): 72% | Titer ([2]; 100 nM monensin added day 3): 3.515 g/L | VCD ([2]; 100 nM monensin added day 3): 11 10^6c/ml | Viability ([2]; 100 nM monensin added day 3): 86% | Titer ([2]; 200 nM monensin added day 3): 4.43 g/L | VCD ([2]; 200 nM monensin added day 3): 11 10^6c/ml | Viability ([2]; 200 nM monensin added day 3): 87% | Titer ([2]; 500 nM monensin added day 3): 3.055 g/L | VCD ([2]; 500 nM monensin added day 3): 5 10^6c/ml | Viability ([2]; 500 nM monensin added day 3): 41%
